Literature values, collected in patent US7374770B2, “Topical composition for follicular delivery of an ornithine decarboxylase inhibitor” (SkinMedica, Inc., priority 2001, dated 2008).

Conditions: undesirable secondary pharmacological effect, known

In the case of `C#CC(N)CCCN` (stereo not shown) [5-hexyne-1,4-diamine], the “brain 4-aminobutyric acid levels” value is listed as “increases”.
